Laboratory results taken from the supplement of paper PMC10307832.

Key:
Experiment in all cases: relative viability (nuclei count vs DMSO), 5 days (fraction); higher = more cells survive
AZ3146 + Pictilisib = compound: CN1CCC(CC1)OC2=CC(=C(C=C2)NC3=NC=C4C(=N3)N(C(=O)N4C)C5CCCC5)OC [AZ3146] + CS(=O)(=O)N1CCN(Cc2cc3nc(-c4cccc5[nH]ncc45)nc(N4CCOCC4)c3s2)CC1 [Pictilisib] (partner 1 µM)
Outline: (§1)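 Medians of duplicate plates are given as relative viability. That measure is the nuclei count in treated wells divided by the count in vehicle wells. Counts were taken on 4× images of lung cancer cell lines in 1536-well plates, 5 days after pin-tool dosing the day after seeding with one drug alone or a fixed anchor-drug dose plus five library-drug doses (not always all listed) in √10 steps.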

GSK-J4 + Foretinib = compound: CCOC(=O)CCNc1cc(N2CCc3ccccc3CC2)nc(-c2ccccn2)n1 [GSK-J4] + COc1cc2c(Oc3ccc(NC(=O)C4(C(=O)Nc5ccc(F)cc5)CC4)cc3F)ccnc2cc1OCCCN1CCOCC1 [Foretinib] (partner 0.25 µM)
Outline: as §1

GSK-J4 + Crizotinib = compound: CCOC(=O)CCNc1cc(N2CCc3ccccc3CC2)nc(-c2ccccn2)n1 [GSK-J4] + C[C@@H](Oc1cc(-c2cnn(C3CCNCC3)c2)cnc1N)c1c(Cl)ccc(F)c1Cl [Crizotinib] (partner 1 µM)
Outline: as §1

GSK-J4 + Linsitinib = compound: CCOC(=O)CCNc1cc(N2CCc3ccccc3CC2)nc(-c2ccccn2)n1 [GSK-J4] + C[C@]1(O)C[C@@H](c2nc(-c3ccc4ccc(-c5ccccc5)nc4c3)c3c(N)nccn32)C1 [Linsitinib] (partner 1 µM)
Outline: as §1

Row | Cell Line | relative viability (AZ3146 + Pictilisib; first compound 0.08 µM) | relative viability (AZ3146 + Pictilisib; first compound 0.253 µM) | relative viability (AZ3146 + Pictilisib; first compound 0.8 µM) | relative viability (AZ3146 + Pictilisib; first compound 2.53 µM) | relative viability (AZ3146 + Pictilisib; first compound 8 µM) | relative viability (GSK-J4 + Foretinib; first compound 0.5 µM) | relative viability (GSK-J4 + Foretinib; first compound 1.581 µM) | relative viability (GSK-J4 + Foretinib; first compound 15.81 µM) | relative viability (GSK-J4 + Foretinib; first compound 50 µM) | relative viability (GSK-J4 + Crizotinib; first compound 0.5 µM) | relative viability (GSK-J4 + Crizotinib; first compound 1.581 µM) | relative viability (GSK-J4 + Crizotinib; first compound 15.81 µM) | relative viability (GSK-J4 + Crizotinib; first compound 50 µM) | relative viability (GSK-J4 + Linsitinib; first compound 0.5 µM) | relative viability (GSK-J4 + Linsitinib; first compound 1.581 µM) | relative viability (GSK-J4 + Linsitinib; first compound 15.81 µM) | relative viability (GSK-J4 + Linsitinib; first compound 50 µM) | relative viability (GSK-J4 + Foretinib; first compound 5 µM) | relative viability (GSK-J4 + Crizotinib; first compound 5 µM) | relative viability (GSK-J4 + Linsitinib; first compound 5 µM)
1 | HCC-366 | 0.233 | 0.133 | 0.138 | 0.146 | 0.191 | 0.955 | 0.881 | 0.915 | 0.874 | 0.523 | 0.405 | 0.395 | 0.445 | 0.622 | 0.547 | 0.478 | 0.437 |  |  | 
2 | A-427 | 0.826 | 0.626 | 0.65 | 0.519 | 0.675 | 1.05 |  | 0.532 | 0.218 | 0.844 |  | 0.591 | 0.362 | 1.07 |  | 1.11 | 0.94 | 1.11 | 0.852 | 1.14
3 | NCI-H2347 | 0.604 | 0.542 | 0.654 | 1.12 | 0.422 | 1.16 | 0.716 | 0.843 | 0.826 | 0.644 | 0.707 | 0.633 | 0.554 | 0.829 | 0.78 | 0.961 | 0.651 | 1.06 | 0.651 | 0.885
4 | NCI-H1792 | 0.211 | 0.238 | 0.32 | 0.339 | 0.285 |  |  |  |  | 0.981 | 0.675 | 0.955 | 0.959 | 0.543 | 0.296 | 0.465 | 0.635 |  | 0.911 | 0.518
5 | SK-LU-1 | 0.571 | 0.507 | 0.693 | 0.651 | 0.535 | 0.727 | 0.722 | 0.598 | 0.603 | 0.756 | 0.762 | 0.607 | 0.584 | 1.08 | 1.18 | 0.911 | 0.777 | 0.62 | 0.725 | 0.716
6 | RERF-LC-KJ | 0.513 | 0.53 | 0.549 | 0.696 | 0.516 | 0.824 | 0.796 | 0.803 | 0.852 | 0.709 | 0.837 | 0.872 | 0.768 | 0.93 | 0.818 | 0.856 | 0.777 | 0.882 | 0.721 | 0.852
7 | NCI-H1993 | 0.806 | 0.797 | 0.788 | 0.839 | 0.762 | 0.789 | 0.74 | 0.556 | 0.549 | 0.826 | 0.789 | 0.841 | 0.796 | 0.694 | 0.752 | 0.779 | 0.785 | 0.796 | 0.938 | 0.814
8 | NCI-H1734 | 0.501 | 0.522 | 0.418 | 0.474 | 0.499 | 0.821 | 0.787 | 0.707 | 0.619 | 0.645 | 0.637 | 0.57 | 0.486 | 0.884 | 0.72 | 0.757 | 0.816 | 0.849 | 0.576 | 0.818
9 | HCC-44 | 0.543 | 0.528 | 0.815 | 0.618 | 0.472 |  |  |  |  | 0.759 | 0.705 | 0.825 | 0.755 | 0.704 | 0.625 | 0.735 | 0.646 |  | 0.696 | 0.709
10 | NCI-H1944 |  | 0.34 | 0.323 | 0.376 | 0.364 | 0.934 | 0.872 | 0.747 | 0.759 | 1.14 | 1.06 | 1.1 | 1.07 | 1.2 | 0.977 | 1.22 | 1.2 | 1.01 | 1.11 | 1.22
11 | HCC-78 |  | 0.23 | 0.225 | 0.223 | 0.211 | 0.571 | 0.508 | 0.589 | 0.631 | 0.346 | 0.297 |  | 0.354 | 0.44 | 0.499 |  | 0.484 | 0.675 | 0.378 | 0.701
12 | NCI-H838 | 0.557 | 0.467 | 0.39 | 0.387 | 0.266 | 1.03 | 1.02 | 0.853 | 0.738 | 0.85 | 0.845 | 0.816 | 0.752 | 0.973 | 0.982 | 0.999 | 1 |  |  | 
13 | SW 1573 | 0.457 | 0.539 | 0.507 | 0.633 | 0.443 | 0.846 | 0.69 | 0.776 | 0.764 | 0.701 | 0.726 | 0.754 | 0.608 | 0.81 | 0.755 | 0.703 | 0.595 | 0.751 | 0.832 | 0.802
14 | NCI-H1623 |  |  |  |  |  | 0.93 | 0.727 | 0.562 | 0.807 |  |  |  |  |  |  |  |  | 0.925 |  | 
15 | ChaGo-K-1 | 0.746 | 0.668 | 0.645 | 0.824 | 0.596 | 0.995 | 0.907 | 0.895 | 0.72 | 1.03 |  | 1.12 | 0.926 |  |  |  |  | 0.971 | 0.879 | 
16 | LCLC-97TM1 |  |  | 0.18 | 0.227 | 0.181 | 0.972 | 0.953 | 0.856 | 0.561 |  |  | 0.269 | 0.323 |  |  | 0.23 | 0.146 | 0.909 | 0.455 | 0.213
17 | COR-L 105 | 0.38 | 0.406 | 0.419 | 0.356 | 0.237 | 1.13 | 0.877 | 1.02 | 0.969 | 0.843 | 0.7 | 0.749 | 0.695 | 0.985 | 0.572 | 1.06 | 0.99 | 0.834 | 0.547 | 0.91
18 | NCI-H1666 | 0.307 | 0.507 | 0.485 | 0.582 | 0.648 | 0.998 | 0.742 | 0.907 | 0.749 | 0.925 |  | 0.882 | 0.462 | 0.873 |  | 0.779 | 0.764 | 1.08 | 1.01 | 0.888
